Tests used:
human JAK2 = human JAK2 (Homo sapiens, UniProt O60674); test: Kinase panel screen, JAK2; format: biochemical; details: kinase reaction with 10 or 100 μM ATP
human pim-2 = human pim-2 (Homo sapiens, UniProt Q9P1W9); test: Kinase panel screen, Pim-2; format: biochemical; details: kinase reaction with 10 or 100 μM ATP
Rsk2 = Rsk2 (Homo sapiens, UniProt P51812); test: Kinase panel screen, Rsk2; format: biochemical; details: 20 μM resveratrol
human p70S6K = human p70S6K (Homo sapiens, UniProt P23443); test: Kinase panel screen, p70S6K; format: biochemical; details: 10 or 100 μM ATP; 0.01-100 μM resveratrol
NLK = target: T1, NLK (Homo sapiens, UniProt Q9UBE8); test: Kinase panel screen, NLK; format: biochemical; details: 10 μM ATP; 0.01-100 μM resveratrol
T1 sequence (Q9UBE8 1-527): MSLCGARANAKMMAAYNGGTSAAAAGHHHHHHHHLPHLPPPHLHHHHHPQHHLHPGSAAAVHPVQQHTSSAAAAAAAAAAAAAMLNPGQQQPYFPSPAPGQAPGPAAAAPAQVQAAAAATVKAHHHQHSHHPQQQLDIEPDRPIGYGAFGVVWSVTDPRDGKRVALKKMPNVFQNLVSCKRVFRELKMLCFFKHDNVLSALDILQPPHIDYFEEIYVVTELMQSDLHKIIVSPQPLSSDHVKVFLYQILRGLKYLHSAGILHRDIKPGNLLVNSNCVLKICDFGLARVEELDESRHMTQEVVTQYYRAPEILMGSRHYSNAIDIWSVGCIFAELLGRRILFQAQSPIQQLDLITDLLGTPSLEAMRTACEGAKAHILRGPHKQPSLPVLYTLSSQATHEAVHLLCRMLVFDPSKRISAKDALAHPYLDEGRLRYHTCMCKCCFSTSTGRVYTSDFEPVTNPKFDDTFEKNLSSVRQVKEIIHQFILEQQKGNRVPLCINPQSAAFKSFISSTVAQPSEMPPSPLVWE

Src = Src (Homo sapiens, UniProt P12931); test: Kinase panel screen, Src; format: biochemical; details: concentration of 20 micromolar
FL5.12 cells = test: Growth inhibition of hematopoietic cell line FL5.12; format: cell-based; details: 0.1, 1, 10 and 100 μM, 24 hours, in the presence of IL-3, Coulter cell count
Method: Hematopoietic cell line FL5.12 cells were seed at equal density and grown in the presence of IL-3, a growth factor. Cells were then treated for 24 hours with 0.1, 1, 10 and 100 μM resveratrol. Cells were counted with a Coulter particle counter to determine cell inhibition by resveratrol.

PKC = test: Kinase panel screen, PKC; details: concentration of 20 micromolar
PI3K = test: Kinase panel screen, PI3K; details: concentrations up to 20 micromolar

Sequence of human p70S6K (P23443 whole entry): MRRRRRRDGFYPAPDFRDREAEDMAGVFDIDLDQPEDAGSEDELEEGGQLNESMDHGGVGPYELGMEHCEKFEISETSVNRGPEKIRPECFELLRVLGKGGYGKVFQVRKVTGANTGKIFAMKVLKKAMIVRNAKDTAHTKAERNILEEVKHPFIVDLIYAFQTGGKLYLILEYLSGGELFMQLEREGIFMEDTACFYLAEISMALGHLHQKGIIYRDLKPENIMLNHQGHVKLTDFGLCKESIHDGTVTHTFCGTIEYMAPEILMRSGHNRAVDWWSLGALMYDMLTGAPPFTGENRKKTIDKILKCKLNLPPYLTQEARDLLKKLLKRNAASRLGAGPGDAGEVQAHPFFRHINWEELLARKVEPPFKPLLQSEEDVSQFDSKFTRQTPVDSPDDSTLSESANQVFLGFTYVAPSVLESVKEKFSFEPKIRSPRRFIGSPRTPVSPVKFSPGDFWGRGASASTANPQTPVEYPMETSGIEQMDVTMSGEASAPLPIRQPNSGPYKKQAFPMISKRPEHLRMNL
Sequence of Rsk2 (P51812 whole entry): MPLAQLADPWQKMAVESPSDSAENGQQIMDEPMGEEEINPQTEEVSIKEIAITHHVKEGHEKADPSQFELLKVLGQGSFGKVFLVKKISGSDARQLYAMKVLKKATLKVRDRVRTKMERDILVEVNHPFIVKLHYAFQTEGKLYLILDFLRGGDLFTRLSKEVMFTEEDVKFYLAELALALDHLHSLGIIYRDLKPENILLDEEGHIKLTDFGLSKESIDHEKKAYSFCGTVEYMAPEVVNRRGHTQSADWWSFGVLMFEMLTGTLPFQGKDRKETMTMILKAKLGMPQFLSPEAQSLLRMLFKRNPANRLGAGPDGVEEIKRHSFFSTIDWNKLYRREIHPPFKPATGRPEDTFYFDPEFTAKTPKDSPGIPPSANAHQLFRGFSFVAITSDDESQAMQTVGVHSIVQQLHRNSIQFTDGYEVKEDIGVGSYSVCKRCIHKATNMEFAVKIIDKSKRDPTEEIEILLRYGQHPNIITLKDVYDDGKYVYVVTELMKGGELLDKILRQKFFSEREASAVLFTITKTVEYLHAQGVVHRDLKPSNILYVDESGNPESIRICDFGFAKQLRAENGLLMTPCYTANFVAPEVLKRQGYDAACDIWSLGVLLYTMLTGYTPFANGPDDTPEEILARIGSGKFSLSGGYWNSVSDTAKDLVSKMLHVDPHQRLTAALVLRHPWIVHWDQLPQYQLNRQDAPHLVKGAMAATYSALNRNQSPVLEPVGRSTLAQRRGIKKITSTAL
Sequence of human JAK2 (O60674 whole entry): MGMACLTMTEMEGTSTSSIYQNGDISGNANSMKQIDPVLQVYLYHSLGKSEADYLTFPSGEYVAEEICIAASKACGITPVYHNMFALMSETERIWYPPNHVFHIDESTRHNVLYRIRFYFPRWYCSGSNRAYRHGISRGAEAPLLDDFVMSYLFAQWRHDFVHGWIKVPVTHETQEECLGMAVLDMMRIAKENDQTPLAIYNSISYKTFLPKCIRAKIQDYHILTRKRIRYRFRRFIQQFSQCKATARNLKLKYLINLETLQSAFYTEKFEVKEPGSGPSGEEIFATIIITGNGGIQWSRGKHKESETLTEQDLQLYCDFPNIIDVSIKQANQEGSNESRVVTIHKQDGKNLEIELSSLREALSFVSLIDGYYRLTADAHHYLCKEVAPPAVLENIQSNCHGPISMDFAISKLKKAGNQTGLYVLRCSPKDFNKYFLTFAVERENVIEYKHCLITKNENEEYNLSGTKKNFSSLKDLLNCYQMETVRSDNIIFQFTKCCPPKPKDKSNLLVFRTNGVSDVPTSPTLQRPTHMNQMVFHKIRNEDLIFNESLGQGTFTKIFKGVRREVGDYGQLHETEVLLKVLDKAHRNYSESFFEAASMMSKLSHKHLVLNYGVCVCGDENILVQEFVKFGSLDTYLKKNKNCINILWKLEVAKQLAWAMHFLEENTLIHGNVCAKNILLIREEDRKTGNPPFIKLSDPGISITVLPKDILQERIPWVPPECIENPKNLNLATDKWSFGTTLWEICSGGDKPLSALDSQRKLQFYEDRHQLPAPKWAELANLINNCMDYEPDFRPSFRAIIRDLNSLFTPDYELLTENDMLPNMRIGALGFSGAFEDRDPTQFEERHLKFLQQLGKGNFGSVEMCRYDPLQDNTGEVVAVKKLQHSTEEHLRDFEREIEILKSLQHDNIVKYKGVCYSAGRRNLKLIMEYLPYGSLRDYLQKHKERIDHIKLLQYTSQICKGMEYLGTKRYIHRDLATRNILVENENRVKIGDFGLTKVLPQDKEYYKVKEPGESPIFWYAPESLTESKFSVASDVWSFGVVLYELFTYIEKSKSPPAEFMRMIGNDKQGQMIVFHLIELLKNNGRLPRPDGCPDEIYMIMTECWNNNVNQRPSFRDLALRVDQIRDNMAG
Sequence of Src (P12931 whole entry, species assumed): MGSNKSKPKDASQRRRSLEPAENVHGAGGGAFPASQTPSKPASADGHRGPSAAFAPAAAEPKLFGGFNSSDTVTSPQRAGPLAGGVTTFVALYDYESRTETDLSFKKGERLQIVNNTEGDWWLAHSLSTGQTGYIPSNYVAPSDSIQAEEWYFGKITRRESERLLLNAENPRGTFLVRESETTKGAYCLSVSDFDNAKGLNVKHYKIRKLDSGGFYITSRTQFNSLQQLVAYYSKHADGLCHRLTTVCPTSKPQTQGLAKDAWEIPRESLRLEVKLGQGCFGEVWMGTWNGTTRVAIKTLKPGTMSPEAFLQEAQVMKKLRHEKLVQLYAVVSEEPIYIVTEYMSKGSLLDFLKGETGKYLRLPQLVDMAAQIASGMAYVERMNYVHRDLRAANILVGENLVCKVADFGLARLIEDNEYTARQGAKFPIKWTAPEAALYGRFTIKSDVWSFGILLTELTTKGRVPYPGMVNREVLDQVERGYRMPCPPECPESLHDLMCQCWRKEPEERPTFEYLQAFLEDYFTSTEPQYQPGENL
Sequence of human pim-2 (Q9P1W9 whole entry): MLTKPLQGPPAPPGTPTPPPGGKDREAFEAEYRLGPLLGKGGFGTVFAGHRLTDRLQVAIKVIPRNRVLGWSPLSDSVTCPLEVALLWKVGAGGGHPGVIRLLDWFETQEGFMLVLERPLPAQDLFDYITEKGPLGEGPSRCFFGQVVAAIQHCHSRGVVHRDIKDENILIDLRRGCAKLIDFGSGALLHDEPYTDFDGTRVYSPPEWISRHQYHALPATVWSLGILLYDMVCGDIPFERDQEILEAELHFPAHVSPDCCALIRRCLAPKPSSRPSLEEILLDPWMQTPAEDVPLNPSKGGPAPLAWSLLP

Oc1ccc(C=Cc2cc(O)cc(O)c2)cc1 [resveratrol, 3,5, 4′-trihydroxystilbene]
IC50 (human JAK2): 1.47 µM
IC50 (human pim-2): 1.49 µM
inhibition at 20 µM (Rsk2): ~68%
Inhibition of p70S6K (in words) (human p70S6K): specific inhibitor
Inhibition of NLK (in words) (NLK): specific inhibitor
Inhibition of Src (in words) (Src): either not inhibited or only weakly inhibited
Inhibition of FL5.12 cell growth (in words) (FL5.12 cells): dose dependent inhibition
Inhibition of PKC (in words) (PKC): either not inhibited or only weakly inhibited
Inhibition of PI3K (in words) (PI3K): no inhibition
